Laboratory results published in patent US20100022491A1, “4-HYDROXY-2-OXO-2,3-DIHYDRO-1,3-BENZOTHIAZOL-7YL COMPOUNDS FOR MODULATION OF B2-ADRENORECEPTOR ACTIVITY” (ASTRAZENECA AB, priority 2006, published 2010).
Structures can show the parent of a compound that is named as a salt.

Columns and labels:
Adrenergic β2 = target: T1, Adrenergic β2 (Homo sapiens, UniProt P07550); assay: Adrenergic β2 mediated cAMP production in H292 cells; assay type: cell-based; conditions: for EC50: H292 cells, cAMP by AlphaScreen, 60 minutes at room temperature, rolipram 300 μM, read-out: β2 pEC50 (converted); for β2 Int Act: Intrinsic Activity as a fraction relative to the maximum activity determined for formoterol
T1 construct: Adherent H292 cells were removed from tissue culture flasks; endogenous in cells; host or cells: H292 cells
T1 sequence (P07550 whole entry): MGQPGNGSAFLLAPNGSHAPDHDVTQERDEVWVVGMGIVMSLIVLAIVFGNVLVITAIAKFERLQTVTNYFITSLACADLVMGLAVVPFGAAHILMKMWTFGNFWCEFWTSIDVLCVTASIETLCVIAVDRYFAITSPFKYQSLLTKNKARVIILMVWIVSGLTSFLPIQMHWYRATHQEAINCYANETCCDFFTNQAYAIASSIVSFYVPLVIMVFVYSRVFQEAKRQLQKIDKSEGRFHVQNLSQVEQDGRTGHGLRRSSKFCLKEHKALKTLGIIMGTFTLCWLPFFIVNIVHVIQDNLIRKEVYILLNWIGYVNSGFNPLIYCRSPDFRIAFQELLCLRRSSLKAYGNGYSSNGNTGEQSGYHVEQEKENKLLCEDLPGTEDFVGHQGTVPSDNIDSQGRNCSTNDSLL
Summary of the method: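 cAMP accumulation in adherent H292 cells, measured by AlphaScreen and calibrated with cAMP standards. Compounds incubated 60 min at room temperature after 10 min rolipram (final 300 μM; vehicle 1.6% DMSO). pEC50 and intrinsic activity, as a fraction of formoterol's maximum, from four-parameter logistic fit.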

[1] = target: T2, recombinant human adrenergic beta 1 receptors (Homo sapiens, UniProt P08588); assay: Adrenergic β1 selectivity binding assay ([125I]-Iodocyanopindolol); conditions: inhibition of [125I]-Iodocyanopindolol (0.036 nM) binding; read-out: β1 bind p IC50 (converted)
T2 construct: purchased Euroscreen
T2 sequence (P08588 whole entry): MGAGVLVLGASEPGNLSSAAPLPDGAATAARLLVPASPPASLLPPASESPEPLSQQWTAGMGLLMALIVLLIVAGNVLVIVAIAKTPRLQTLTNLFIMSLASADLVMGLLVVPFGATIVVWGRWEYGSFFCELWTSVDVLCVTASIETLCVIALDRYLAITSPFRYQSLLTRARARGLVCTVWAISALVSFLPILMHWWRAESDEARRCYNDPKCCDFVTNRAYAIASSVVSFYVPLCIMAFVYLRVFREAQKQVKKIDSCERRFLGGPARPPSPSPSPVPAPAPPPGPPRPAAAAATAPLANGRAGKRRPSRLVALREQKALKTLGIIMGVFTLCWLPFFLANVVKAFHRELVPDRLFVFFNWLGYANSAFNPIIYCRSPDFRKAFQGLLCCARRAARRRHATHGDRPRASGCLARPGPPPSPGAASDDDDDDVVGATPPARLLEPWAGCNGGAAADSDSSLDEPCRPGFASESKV
Summary of the method: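 Displacement of [^125I]-Iodocyanopindolol (0.036 nM final) from human β1 receptor membranes, 2 hours at room temperature, pH 7.4 HEPES/EDTA/NaCl buffer. After filtration, scintillation counting; NSB set with 10 μM propranolol and subtracted. Four-parameter logistic fitting gave pIC50.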

Structure (SMILES)	EC50 (Adrenergic β2)	β2 Int Act (Adrenergic β2)	IC50 [1]
O=C(CCNCCc1ccc(F)c(F)c1)N(CCNCCc1ccc(O)c2[nH]c(=O)sc12)C1CCCCC1 [Example 73, N^1-Cyclohexyl-N^3-[2-(3,4-difluorophenyl)ethyl]-N^1-(2-{[2-(4-hydroxy-2-oxo-2,3-dihydro-1,3-benzothiazol-7-yl)ethyl]amino}ethyl)-β-alaninamide bis-trifluoroacetic acid salt]	5.01 nM	0.85	7940 nM
CC(C)(CO)CN(CCNCCc1ccc(O)c2[nH]c(=O)sc12)C(=O)CCNCCc1ccccc1Cl [Example 65, N^3-[2-(2-Chlorophenyl)ethyl]-N^1-(3-hydroxy-2,2-dimethylpropyl)-N^1-(2-{[2-(4-hydroxy-2-oxo-2,3-dihydro-1,3-benzothiazol-7-yl)ethyl]amino}ethyl)-β-alaninamide bis-trifluoroacetic acid salt]	12.6 nM	0.59	1000 nM
O=C(CCNCCc1cccc(Cl)c1)N(CCNCCc1ccc(O)c2[nH]c(=O)sc12)C1Cc2ccccc2C1 [Example 42, N^3-[2-(3-Chlorophenyl)ethyl]-N^1-(2,3-dihydro-1H-inden-2-yl)-N^1-(2-{[2-(4-hydroxy-2-oxo-2,3-dihydro-1,3-benzothiazol-7-yl)ethyl]amino}ethyl)-β-alaninamide bis-trifluoroacetic acid salt]	15.8 nM	0.82	1260 nM
C[C@H](CNCCC(=O)N(CCNCCc1ccc(O)c2[nH]c(=O)sc12)CC(C)(C)C)c1ccccc1 [Example 11, N-(2,2-Dimethylpropyl)-N-(2-{[2-(4-hydroxy-2-oxo-2,3-dihydro-1,3-benzothiazol-7-yl)ethyl]amino}ethyl)-N^3-[(2S)-2-phenylpropyl]-β-alaninamide bis-trifluoroacetic acid salt]	15.8 nM	0.84	7940 nM
O=C(CCNCCc1cccc(F)c1)N(CCNCCc1ccc(O)c2[nH]c(=O)sc12)CC12CC3CC(CC(C3)C1)C2 [Example 60, N^1-(1-Adamantylmethyl)-N^3-[2-(3-fluorophenyl)ethyl]-N^1-(2-{[2-(4-hydroxy-2-oxo-2,3-dihydro-1,3-benzothiazol-7-yl)ethyl]amino}ethyl)-β-alaninamide bis-trifluoroacetic acid salt]	20 nM	0.76	2000 nM
O=C(CCNCCc1cccc(C(F)(F)F)c1)N(CCNCCc1ccc(O)c2[nH]c(=O)sc12)C1CCCCCC1 [Example 82, N^1-Cycloheptyl-N^1-(2-{[2-(4-hydroxy-2-oxo-2,3-dihydro-1,3-benzothiazol-7-yl)ethyl]amino}ethyl)-N^3-{2-[3-(trifluoromethyl)phenyl]ethyl}-β-alaninamide bis-trifluoroacetic acid salt]	79.4 nM	0.86	2510 nM
O=C(CCNCCc1cccc(Cl)c1)N(CCNCCc1ccc(O)c2[nH]c(=O)sc12)C1CCCC1 [Example 30, N^3-[2-(3-Chlorophenyl)ethyl]-N-cyclopentyl-N-(2-{[2-(4-hydroxy-2-oxo-2,3-dihydro-1,3-benzothiazol-7-yl)ethyl]amino}ethyl)-β-alaninamide bis-trifluoroacetic acid salt]	5.01 nM	0.96	3160 nM
O=C(CCNCCc1cccc(Cl)c1)N(CCNCCc1ccc(O)c2[nH]c(=O)sc12)C1CCCCCC1 [Example 50, N^3-[2-(3-Chlorophenyl)ethyl]-N^1-cycloheptyl-N^1-(2-{[2-(4-hydroxy-2-oxo-2,3-dihydro-1,3-benzothiazol-7-yl)ethyl]amino}ethyl)-β-alaninamide bis-trifluoroacetic acid salt]	1.26 nM	0.91	794 nM
CCCC[C@@H](C)N(CCNCCc1ccc(O)c2[nH]c(=O)sc12)C(=O)CCNCCc1ccccc1 [Example 101, N-(2-{[2-(4-Hydroxy-2-oxo-2,3-dihydro-1,3-benzothiazol-7-yl)ethyl]amino}ethyl)-N-[(1R)-1-methylpentyl]-N^3-(2-phenylethyl)-β-alaninamide bis-trifluoroacetic acid salt]	2.51 nM	0.98	3980 nM
O=C(CCNCCc1ccc(F)cc1Cl)N(CCNCCc1ccc(O)c2[nH]c(=O)sc12)C1CCCCCC1 [Example 57, N^3-[2-(2-Chloro-4-fluorophenyl)ethyl]-N^1-cycloheptyl-N^1-(2-{[2-(4-hydroxy-2-oxo-2,3-dihydro-1,3-benzothiazol-7-yl)ethyl]amino}ethyl)-β-alaninamide bis-trifluoroacetic acid salt]	20 nM	0.72	2510 nM
CC(C)(C)CN(CCNCCc1ccc(O)c2[nH]c(=O)sc12)C(=O)CCNCCc1ccc(Cl)c(Cl)c1 [Example 9, N^3-[2-(3,4-Dichlorophenyl)ethyl]-N-(2,2-dimethylpropyl)-N-(2-{[2-(4-hydroxy-2-oxo-2,3-dihydro-1,3-benzothiazol-7-yl)ethyl]amino}ethyl)-β-alaninamide bis-trifluoroacetic acid salt]	7.94 nM	0.65	5010 nM
O=C(CCNCCc1ccc(Cl)cc1)N(CCNCCc1ccc(O)c2[nH]c(=O)sc12)C1CCOCC1 [Example 26, N^3-[2-(4-Chlorophenyl)ethyl]-N-(2-{[2-(4-hydroxy-2-oxo-2,3-dihydro-1,3-benzothiazol-7-yl)ethyl]amino}ethyl)-N-(tetrahydro-2H-pyran-4-yl)-β-alaninamide bis-trifluoroacetic acid salt]	7.94 nM	0.83	5010 nM
CC(C)(CN(CCNCCc1ccc(O)c2[nH]c(=O)sc12)C(=O)CCNCCc1ccccc1)c1ccccc1 [Example 45, N^1-(2-{[2-(4-Hydroxy-2-oxo-2,3-dihydro-1,3-benzothiazol-7-yl)ethyl]amino}ethyl)-N^1-(2-methyl-2-phenylpropyl)-N^3-(2-phenylethyl)-β-alaninamide bis-trifluoroacetic acid salt]	25.1 nM	0.55	1260 nM
O=C(CCNC[C@@H](O)c1ccccc1)N(CCNCCc1ccc(O)c2[nH]c(=O)sc12)C1CCCCC1 [Example 74, N^1-Cyclohexyl-N^1-(2-{[2-(4-hydroxy-2-oxo-2,3-dihydro-1,3-benzothiazol-7-yl)ethyl]amino}ethyl)-N^3-[(2S)-2-hydroxy-2-phenylethyl]-β-alaninamide bis-trifluoroacetic acid salt]	12.6 nM	0.79	3160 nM
O=C(CCNCCc1cccc(OC(F)F)c1)N(CCNCCc1ccc(O)c2[nH]c(=O)sc12)C1CCCCCC1 [Example 54, N-Cycloheptyl-N^3-{2-[3-(difluoromethoxy)phenyl]ethyl}-N^1-(2-{[2-(4-hydroxy-2-oxo-2,3-dihydro-1,3-benzothiazol-7-yl)ethyl]amino}ethyl)-β-alaninamide bis-trifluoroacetic acid salt]	10 nM	0.69	2510 nM
O=C(CCNCCc1cc(F)ccc1F)N(CCNCCc1ccc(O)c2[nH]c(=O)sc12)C1CCCCCC1 [Example 83, N^1-Cycloheptyl-N^3-[2-(2,5-difluorophenyl)ethyl]-N^1-(2-{[2-(4-hydroxy-2-oxo-2,3-dihydro-1,3-benzothiazol-7-yl)ethyl]amino}ethyl)-β-alaninamide bis-trifluoroacetic acid salt]	3.98 nM	0.71	5010 nM
CC(C)(CNCCC(=O)N(CCNCCc1ccc(O)c2[nH]c(=O)sc12)C1CCCC1)c1ccccc1 [Example 32, N-cyclopentyl-N-(2-{[2-(4-hydroxy-2-oxo-2,3-dihydro-1,3-benzothiazol-7-yl)ethyl]amino}ethyl)-N^3-(2-methyl-2-phenylpropyl)-β-alaninamide bis-trifluoroacetic acid salt]	79.4 nM	0.67	7940 nM
CC(C)(C)CN(CCNCCc1ccc(O)c2[nH]c(=O)sc12)C(=O)CCNCCc1ccccc1 [Example 6, N-(2,2-Dimethylpropyl)-N-(2-{[2-(4-hydroxy-2-oxo-2,3-dihydro-1,3-benzothiazol-7-yl)ethyl]amino}ethyl)-N^3-(2-phenylethyl)-β-alaninamide bis-trifluoroacetic acid salt]	2 nM	0.89	794 nM
CC(C)(CO)CN(CCNCCc1ccc(O)c2[nH]c(=O)sc12)C(=O)CCNCCc1cccc(Cl)c1Cl [Example 67, N^3-[2-(2,3-Dichlorophenyl)ethyl]-N^1-(3-hydroxy-2,2-dimethylpropyl)-N^1-(2-{[2-(4-hydroxy-2-oxo-2,3-dihydro-1,3-benzothiazol-7-yl)ethyl]amino}ethyl)-β-alaninamide bis-trifluoroacetic acid salt]	20 nM	0.70	1000 nM
CC(CN(C(=O)CCNCCc1cccc(F)c1)C1CCCCCC1)NCCc1ccc(O)c2[nH]c(=O)sc12 (stereo not drawn) [Example 104, N-Cycloheptyl-N^3-[2-(3-fluorophenyl)ethyl]-N-(2-{[2-(4-hydroxy-2-oxo-2,3-dihydro-1,3-benzothiazol-7-yl)ethyl]amino}propyl)-β-alaninamide bis-trifluoroacetic acid salt]	5.01 nM	0.81	794 nM
